Assay [1] addresses Eukaryotic translation initiation factor 2-alpha kinase 1 (Homo sapiens, UniProt Q9BQI3).
The target in assay [2] is T1, Bifunctional phosphoribosylaminoimidazole carboxylase/phosphoribosylaminoimidazole succinocarboxamide synthetase (Homo sapiens, UniProt P22234).
T1 sequence (P22234 whole entry): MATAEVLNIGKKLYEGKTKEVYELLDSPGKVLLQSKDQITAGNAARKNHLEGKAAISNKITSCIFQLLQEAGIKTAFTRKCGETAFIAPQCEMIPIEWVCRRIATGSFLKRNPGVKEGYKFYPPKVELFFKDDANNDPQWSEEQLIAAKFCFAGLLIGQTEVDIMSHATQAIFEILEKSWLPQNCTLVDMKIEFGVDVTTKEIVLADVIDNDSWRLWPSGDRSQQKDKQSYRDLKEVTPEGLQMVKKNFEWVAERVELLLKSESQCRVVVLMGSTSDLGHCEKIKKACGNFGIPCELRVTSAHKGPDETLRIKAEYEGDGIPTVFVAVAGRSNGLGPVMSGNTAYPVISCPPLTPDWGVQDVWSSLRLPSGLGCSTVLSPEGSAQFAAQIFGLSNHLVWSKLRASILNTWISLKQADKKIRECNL

Assay [3] has as its target T2, Serine/threonine-protein kinase D3 (Homo sapiens, UniProt O94806).
T2 sequence (O94806 whole entry): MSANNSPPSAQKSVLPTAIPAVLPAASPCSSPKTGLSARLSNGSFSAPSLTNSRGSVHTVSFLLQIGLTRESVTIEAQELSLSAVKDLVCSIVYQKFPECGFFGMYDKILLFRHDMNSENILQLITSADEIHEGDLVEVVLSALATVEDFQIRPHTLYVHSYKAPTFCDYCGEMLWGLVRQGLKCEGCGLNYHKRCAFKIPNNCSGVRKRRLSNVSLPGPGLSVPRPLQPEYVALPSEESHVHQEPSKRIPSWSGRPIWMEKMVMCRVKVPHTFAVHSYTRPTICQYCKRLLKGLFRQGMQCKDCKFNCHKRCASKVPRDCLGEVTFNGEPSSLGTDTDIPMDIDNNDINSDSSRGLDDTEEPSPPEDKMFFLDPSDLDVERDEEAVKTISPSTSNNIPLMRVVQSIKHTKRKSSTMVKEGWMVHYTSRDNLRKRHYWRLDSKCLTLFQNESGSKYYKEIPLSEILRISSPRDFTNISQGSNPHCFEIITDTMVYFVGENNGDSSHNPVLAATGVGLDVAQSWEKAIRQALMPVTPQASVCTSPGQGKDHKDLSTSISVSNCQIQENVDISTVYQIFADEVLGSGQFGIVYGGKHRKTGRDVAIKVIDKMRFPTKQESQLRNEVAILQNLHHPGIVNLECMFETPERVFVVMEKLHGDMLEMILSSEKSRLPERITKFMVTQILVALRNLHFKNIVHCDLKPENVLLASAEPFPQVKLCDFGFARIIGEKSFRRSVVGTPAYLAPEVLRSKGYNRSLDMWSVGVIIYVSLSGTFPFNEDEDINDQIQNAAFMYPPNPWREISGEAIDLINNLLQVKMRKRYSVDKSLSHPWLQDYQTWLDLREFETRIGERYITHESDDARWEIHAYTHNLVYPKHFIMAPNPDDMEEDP

The target in assay [4] is Tyrosine-protein kinase SYK (Homo sapiens, UniProt P43405).
In assay [5] the target is 26S proteasome regulatory subunit 6B (Homo sapiens, UniProt P43686).
The target in assay [6] is T3, Ribosyldihydronicotinamide dehydrogenase [quinone] (Homo sapiens, UniProt P16083).
T3 sequence (P16083 whole entry): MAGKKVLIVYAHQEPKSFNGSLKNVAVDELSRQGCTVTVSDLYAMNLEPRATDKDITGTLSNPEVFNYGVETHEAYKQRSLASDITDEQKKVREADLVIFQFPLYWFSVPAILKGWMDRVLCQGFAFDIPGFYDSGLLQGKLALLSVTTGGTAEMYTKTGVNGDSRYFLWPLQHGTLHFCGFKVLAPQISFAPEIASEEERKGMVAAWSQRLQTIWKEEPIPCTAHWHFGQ

Assay [7] addresses T4, Ephrin type-B receptor 2 (Homo sapiens, UniProt P29323).
T4 sequence (P29323 whole entry): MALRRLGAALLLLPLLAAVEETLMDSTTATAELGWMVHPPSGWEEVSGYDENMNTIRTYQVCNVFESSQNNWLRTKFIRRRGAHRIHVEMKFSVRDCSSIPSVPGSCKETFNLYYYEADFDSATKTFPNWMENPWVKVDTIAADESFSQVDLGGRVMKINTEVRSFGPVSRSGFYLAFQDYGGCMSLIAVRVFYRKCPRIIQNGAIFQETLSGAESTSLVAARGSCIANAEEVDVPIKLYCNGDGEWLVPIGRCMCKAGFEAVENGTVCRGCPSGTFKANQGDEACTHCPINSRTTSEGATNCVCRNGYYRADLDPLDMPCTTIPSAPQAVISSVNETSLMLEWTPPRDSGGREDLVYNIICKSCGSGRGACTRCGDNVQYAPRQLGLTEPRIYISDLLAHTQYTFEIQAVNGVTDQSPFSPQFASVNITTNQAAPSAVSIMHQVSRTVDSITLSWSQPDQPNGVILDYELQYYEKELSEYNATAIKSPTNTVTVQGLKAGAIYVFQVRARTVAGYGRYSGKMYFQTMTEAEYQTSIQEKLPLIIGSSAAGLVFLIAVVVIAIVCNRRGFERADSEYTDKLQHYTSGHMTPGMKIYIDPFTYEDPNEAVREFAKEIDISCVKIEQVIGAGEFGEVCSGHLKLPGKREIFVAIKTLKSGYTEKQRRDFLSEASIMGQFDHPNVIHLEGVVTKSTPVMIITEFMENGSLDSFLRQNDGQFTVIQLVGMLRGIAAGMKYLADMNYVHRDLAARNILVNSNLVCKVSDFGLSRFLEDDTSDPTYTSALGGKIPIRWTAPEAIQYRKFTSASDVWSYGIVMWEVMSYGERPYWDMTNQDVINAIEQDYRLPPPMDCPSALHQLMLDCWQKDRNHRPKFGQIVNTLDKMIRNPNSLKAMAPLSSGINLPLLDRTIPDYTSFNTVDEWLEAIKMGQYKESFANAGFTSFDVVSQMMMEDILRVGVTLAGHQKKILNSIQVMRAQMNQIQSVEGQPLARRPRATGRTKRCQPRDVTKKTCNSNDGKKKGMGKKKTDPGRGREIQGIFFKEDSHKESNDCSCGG

Assay [8] addresses Cyclin-dependent kinase 13 (Homo sapiens, UniProt Q14004).

From ChEMBL document CHEMBL3991601, “The target landscape of clinical kinase drugs” (Science, 2017) come the findings set out here.

Structures are written as SMILES. Activity calls are given as the source filed them. For most assays here, no stated cut-off is given here; in the data, actives have a measured Kd and inactives only a lower limit.

For orientation: Kd means the constant that tells how readily two partners part at equilibrium.

Chain of Eukaryotic translation initiation factor 2-alpha kinase 1 (Q9BQI3 whole entry): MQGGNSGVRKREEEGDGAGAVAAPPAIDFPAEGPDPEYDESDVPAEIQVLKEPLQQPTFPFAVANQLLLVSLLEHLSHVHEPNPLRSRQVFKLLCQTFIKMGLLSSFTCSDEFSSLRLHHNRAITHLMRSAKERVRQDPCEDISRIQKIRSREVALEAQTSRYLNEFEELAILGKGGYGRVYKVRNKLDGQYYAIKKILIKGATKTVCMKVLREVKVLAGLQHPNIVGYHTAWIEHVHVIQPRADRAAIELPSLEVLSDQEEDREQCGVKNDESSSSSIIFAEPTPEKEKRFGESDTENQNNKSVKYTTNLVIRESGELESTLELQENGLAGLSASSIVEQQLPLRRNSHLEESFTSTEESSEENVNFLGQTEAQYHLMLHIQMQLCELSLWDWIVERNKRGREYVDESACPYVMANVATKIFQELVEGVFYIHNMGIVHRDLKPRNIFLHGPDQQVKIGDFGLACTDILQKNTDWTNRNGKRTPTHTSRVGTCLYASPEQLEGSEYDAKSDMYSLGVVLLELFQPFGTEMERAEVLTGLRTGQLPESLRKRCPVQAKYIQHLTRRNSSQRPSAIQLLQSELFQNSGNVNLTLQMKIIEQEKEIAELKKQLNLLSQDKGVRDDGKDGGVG
Chain of Cyclin-dependent kinase 13 (Q14004 whole entry): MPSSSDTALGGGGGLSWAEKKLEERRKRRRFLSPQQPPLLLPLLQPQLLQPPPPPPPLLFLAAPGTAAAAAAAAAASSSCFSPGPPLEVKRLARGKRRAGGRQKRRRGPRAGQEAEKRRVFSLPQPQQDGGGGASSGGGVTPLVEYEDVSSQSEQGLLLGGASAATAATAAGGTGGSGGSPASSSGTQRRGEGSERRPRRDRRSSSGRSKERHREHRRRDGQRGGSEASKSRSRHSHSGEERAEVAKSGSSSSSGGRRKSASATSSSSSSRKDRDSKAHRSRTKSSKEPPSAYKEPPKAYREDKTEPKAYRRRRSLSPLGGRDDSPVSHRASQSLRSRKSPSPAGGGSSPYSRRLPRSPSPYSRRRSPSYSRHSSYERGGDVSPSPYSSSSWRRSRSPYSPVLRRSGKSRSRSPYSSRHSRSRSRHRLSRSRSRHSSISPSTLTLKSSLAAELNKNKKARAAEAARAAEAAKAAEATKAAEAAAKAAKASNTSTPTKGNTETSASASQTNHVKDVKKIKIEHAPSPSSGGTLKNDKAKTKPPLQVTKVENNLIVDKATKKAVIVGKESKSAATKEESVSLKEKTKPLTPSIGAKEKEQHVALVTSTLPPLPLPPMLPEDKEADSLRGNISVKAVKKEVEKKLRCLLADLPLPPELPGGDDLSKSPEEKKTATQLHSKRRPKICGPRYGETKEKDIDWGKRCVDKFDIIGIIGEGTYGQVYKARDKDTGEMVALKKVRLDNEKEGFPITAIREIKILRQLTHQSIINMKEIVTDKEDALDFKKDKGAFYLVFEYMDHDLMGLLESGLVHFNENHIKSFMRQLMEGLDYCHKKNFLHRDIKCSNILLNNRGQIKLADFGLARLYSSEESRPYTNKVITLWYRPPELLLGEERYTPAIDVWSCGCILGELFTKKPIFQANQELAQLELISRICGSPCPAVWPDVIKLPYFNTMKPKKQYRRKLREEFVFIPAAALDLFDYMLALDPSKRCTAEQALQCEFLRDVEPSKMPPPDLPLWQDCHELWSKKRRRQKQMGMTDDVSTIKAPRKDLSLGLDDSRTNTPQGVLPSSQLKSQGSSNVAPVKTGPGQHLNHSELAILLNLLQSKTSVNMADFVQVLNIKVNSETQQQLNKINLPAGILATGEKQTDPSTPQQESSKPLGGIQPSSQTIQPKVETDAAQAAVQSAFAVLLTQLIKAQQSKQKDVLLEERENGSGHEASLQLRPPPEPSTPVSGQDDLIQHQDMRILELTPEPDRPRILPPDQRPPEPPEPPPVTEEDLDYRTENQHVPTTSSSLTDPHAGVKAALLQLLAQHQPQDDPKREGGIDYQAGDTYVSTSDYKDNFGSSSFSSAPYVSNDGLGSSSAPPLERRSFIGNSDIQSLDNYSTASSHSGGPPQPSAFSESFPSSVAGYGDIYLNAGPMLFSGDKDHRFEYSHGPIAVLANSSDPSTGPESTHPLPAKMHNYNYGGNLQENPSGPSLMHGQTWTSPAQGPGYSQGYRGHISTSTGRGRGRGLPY
Chain of 26S proteasome regulatory subunit 6B (P43686 whole entry): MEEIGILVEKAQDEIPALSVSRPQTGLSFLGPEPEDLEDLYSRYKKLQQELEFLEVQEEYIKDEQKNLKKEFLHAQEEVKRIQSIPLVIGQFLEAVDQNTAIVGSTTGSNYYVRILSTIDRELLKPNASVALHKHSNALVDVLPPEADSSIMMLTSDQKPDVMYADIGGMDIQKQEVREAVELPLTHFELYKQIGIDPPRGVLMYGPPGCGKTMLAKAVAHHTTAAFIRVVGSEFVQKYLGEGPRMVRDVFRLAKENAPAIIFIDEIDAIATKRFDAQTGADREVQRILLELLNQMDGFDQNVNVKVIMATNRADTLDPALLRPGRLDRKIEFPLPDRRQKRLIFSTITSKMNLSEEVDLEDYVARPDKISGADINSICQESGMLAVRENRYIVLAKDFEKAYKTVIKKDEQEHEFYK

For the compound `C=CC(=O)Nc1cccc(Nc2nc(Nc3ccc(N4CCN(C(C)=O)CC4)cc3OC)ncc2C(F)(F)F)c1` [ROCILETINIB], the Kd in assay [1], in assay [2], in assay [3], in assay [4], in assay [5] and in assay [6] was > 30 µM (inactive) in each case. Besides, the Kd in assay [7] and in assay [8] was > 30 µM (inactive) in each case.

Take `C=CC(=O)Nc1cc(Nc2nccc(-c3cn(C)c4ccccc34)n2)c(OC)cc1N(C)CCN(C)C` [OSIMERTINIB]: the Kd in assay [1] was > 30 µM (inactive); in assay [2] it was > 30 µM (inactive); in assay [3] it was > 30 µM (inactive); in assay [4], > 30 µM (inactive); in assay [5], > 30 µM (inactive); in assay [6] it was 3.66 µM (active). For the same compound, the Kd in assay [7] and in assay [8] was > 30 µM (inactive) each time.

Take `NC[C@@](O)(c1ccc(Cl)cc1)c1ccc(-c2cn[nH]c2)cc1` [AT-13148]: the Kd in assay [1], in assay [2], in assay [3], in assay [4], in assay [5] and in assay [6] was > 30 µM (inactive) in each case. Moreover, the Kd in assay [7] and in assay [8] was > 30 µM (inactive) in each case.

On to `O=S(=O)(c1cccc2c(O)nccc12)N1CCCNCC1` [HYDROXYFASUDIL], for which the Kd in assay [1], in assay [2], in assay [3], in assay [4], in assay [5] and in assay [6] was > 30 µM (inactive) each time. In addition, the Kd in assay [7] and in assay [8] was > 30 µM (inactive) in each case.

For the compound `O=C(O)c1ccc2c(c1)nc(Nc1cccc(Cl)c1)c1ccncc12` [SILMITASERTIB], the Kd is 1.66 µM (active) in assay [1]; > 30 µM (inactive) in assay [2]; > 30 µM (inactive) in assay [3]; > 30 µM (inactive) in assay [4]; > 30 µM (inactive) in assay [5]; > 30 µM (inactive) in assay [6]. In addition, the Kd in assay [7] and in assay [8] was > 30 µM (inactive) each time.

As for `Cc1c(NC(=O)OC[C@@H]2COCCN2)cn2ncnc(Nc3ccc4c(cnn4Cc4cccc(F)c4)c3)c12` [AC-480], the Kd in assay [1], in assay [2], in assay [3], in assay [4], in assay [5] and in assay [6] was > 30 µM (inactive) in each case. Besides, the Kd in assay [7] and in assay [8] was > 30 µM (inactive) each time.

As for `O[C@H]1CC[C@H](Nc2ncc3nc(Nc4c(F)cc(F)cc4F)n([C@H]4CCOC4)c3n2)CC1` [TANZISERTIB], the Kd in assay [1], in assay [2], in assay [3], in assay [4], in assay [5] and in assay [6] was > 30 µM (inactive) each time. The Kd in assay [7] and in assay [8] was > 30 µM (inactive) each time.
